Activity calls are given as the source filed them. How the calls were made is not given here.

Three compounds from PubChem BioAssay AID1259407 (Chemical Carcinogenesis Research Information System (CCRIS), 2018) can be followed below.

The series relates to CCRIS mutagenicity, Ames/micronucleus/aberration tests. Description: CCRIS mutagenicity studies.
The mark [1] stands for this setting: Test System: AMES SALMONELLA TYPHIMURIUM, Strain/Indicator: TA98, Metabolic Activation: NONE, Method: STANDARD PLATE.
Setting [2] is: Test System: AMES SALMONELLA TYPHIMURIUM, Strain/Indicator: TA98, Metabolic Activation: RAT LIVER S-9, AROCLOR 1254, Method: STANDARD PLATE.
The mark [3] stands for this setting: Test System: AMES SALMONELLA TYPHIMURIUM, Strain/Indicator: TA100, Metabolic Activation: NONE, Method: STANDARD PLATE.
The mark [4] stands for this setting: Test System: AMES SALMONELLA TYPHIMURIUM, Strain/Indicator: TA100, Metabolic Activation: RAT LIVER S-9, AROCLOR 1254, Method: STANDARD PLATE.

Regarding `COc1cc(NC(C)CCCN)c2ncccc2c1` (stereo not given), the mutagenic call reads like this: (Test System: AMES SALMONELLA TYPHIMURIUM, Strain/Indicator: TA97, Metabolic Activation: NONE, Method: PREINCUBATION) “active; positive”; (Test System: AMES SALMONELLA TYPHIMURIUM, Strain/Indicator: TA97, Metabolic Activation: RAT, LIVER, S-9, PHENOBARBITAL AND BETA-NAPHTHOFLAVONE, Method: PREINCUBATION) “active; positive”; (Test System: AMES SALMONELLA TYPHIMURIUM, Strain/Indicator: TA97A, Metabolic Activation: NONE, Method: STANDARD PLATE) “inactive; negative”; (Test System: AMES SALMONELLA TYPHIMURIUM, Strain/Indicator: TA97A, Metabolic Activation: RAT LIVER S-9, PHENOBARBITAL, Method: STANDARD PLATE) “inactive; negative”; (Test System: AMES SALMONELLA TYPHIMURIUM, Strain/Indicator: TA98, Metabolic Activation: NONE, Method: PREINCUBATION) “inactive; negative”; under setting [1], “active; positive”. For the same compound, the mutagenic call is “active; positive” (Test System: AMES SALMONELLA TYPHIMURIUM, Strain/Indicator: TA98, Metabolic Activation: RAT, LIVER, S-9, AROCLOR 1254 OR PHENOBARBITOL, Method: STANDARD PLATE); “inactive; negative” (Test System: AMES SALMONELLA TYPHIMURIUM, Strain/Indicator: TA98, Metabolic Activation: RAT, LIVER, S-9, PHENOBARBITAL AND BETA-NAPHTHOFLAVONE, Method: PREINCUBATION); “inactive; negative” (Test System: AMES SALMONELLA TYPHIMURIUM, Strain/Indicator: TA98, Metabolic Activation: RAT, LIVER, S-9, Method: PREINCUBATION); “inactive; negative” (Test System: AMES SALMONELLA TYPHIMURIUM, Strain/Indicator: TA100, Metabolic Activation: NONE, Method: PREINCUBATION); “inactive; negative” (Test System: AMES SALMONELLA TYPHIMURIUM, Strain/Indicator: TA100, Metabolic Activation: RAT LIVER S-9, PHENOBARBITAL, Method: STANDARD PLATE); “active; positive” (Test System: AMES SALMONELLA TYPHIMURIUM, Strain/Indicator: TA100, Metabolic Activation: RAT, LIVER, S-9, AROCLOR 1254 OR PHENOBARBITOL, Method: STANDARD PLATE). Further, the mutagenic call is, setting by setting: (Test System: AMES SALMONELLA TYPHIMURIUM, Strain/Indicator: TA100, Metabolic Activation: RAT, LIVER, S-9, PHENOBARBITAL AND BETA-NAPHTHOFLAVONE, Method: PREINCUBATION) “inactive; negative”; (Test System: AMES SALMONELLA TYPHIMURIUM, Strain/Indicator: TA100, Metabolic Activation: RAT, LIVER, S-9, Method: PREINCUBATION) “inactive; negative”; (Test System: AMES SALMONELLA TYPHIMURIUM, Strain/Indicator: TA102, Metabolic Activation: NONE, Method: PREINCUBATION) “inactive; negative”; (Test System: AMES SALMONELLA TYPHIMURIUM, Strain/Indicator: TA102, Metabolic Activation: NONE, Method: STANDARD PLATE) “inactive; negative”; (Test System: AMES SALMONELLA TYPHIMURIUM, Strain/Indicator: TA102, Metabolic Activation: RAT LIVER S-9, PHENOBARBITAL, Method: STANDARD PLATE) “inactive; negative”; (Test System: AMES SALMONELLA TYPHIMURIUM, Strain/Indicator: TA102, Metabolic Activation: RAT, LIVER, S-9, PHENOBARBITAL AND BETA-NAPHTHOFLAVONE, Method: PREINCUBATION) “inactive; negative”. Further, the mutagenic call (Test System: AMES SALMONELLA TYPHIMURIUM, Strain/Indicator: TA104, Metabolic Activation: NONE, Method: STANDARD PLATE) was “inactive; negative”; the mutagenic call (Test System: AMES SALMONELLA TYPHIMURIUM, Strain/Indicator: TA104, Metabolic Activation: RAT LIVER S-9, PHENOBARBITAL, Method: STANDARD PLATE) is “inactive; negative”; the mutagenic call (Test System: AMES SALMONELLA TYPHIMURIUM, Strain/Indicator: TA1535, Metabolic Activation: NONE, Method: STANDARD PLATE) was “inactive; negative”; the mutagenic call (Test System: AMES SALMONELLA TYPHIMURIUM, Strain/Indicator: TA1535, Metabolic Activation: RAT, LIVER, S-9, AROCLOR 1254 OR PHENOBARBITOL, Method: STANDARD PLATE) is “inactive; negative”; the mutagenic call (Test System: AMES SALMONELLA TYPHIMURIUM, Strain/Indicator: TA1537, Metabolic Activation: NONE, Method: PREINCUBATION) is “active; positive”; the mutagenic call (Test System: AMES SALMONELLA TYPHIMURIUM, Strain/Indicator: TA1537, Metabolic Activation: NONE, Method: STANDARD PLATE) is “inactive; negative”. Further, the mutagenic call by setting is: (Test System: AMES SALMONELLA TYPHIMURIUM, Strain/Indicator: TA1537, Metabolic Activation: RAT, LIVER, S-9, AROCLOR 1254, Method: PREINCUBATION) “active; positive”; (Test System: AMES SALMONELLA TYPHIMURIUM, Strain/Indicator: TA1537, Metabolic Activation: RAT, LIVER, S-9, AROCLOR 1254, Method: STANDARD PLATE) “active; positive”; (Test System: AMES SALMONELLA TYPHIMURIUM, Strain/Indicator: TA1537, Metabolic Activation: RAT, LIVER, S-9, AROCLOR 1254 OR PHENOBARBITOL, Method: STANDARD PLATE) “inactive; negative”; (Test System: AMES SALMONELLA TYPHIMURIUM, Strain/Indicator: TA1538, Metabolic Activation: NONE, Method: STANDARD PLATE) “inactive; negative”; (Test System: AMES SALMONELLA TYPHIMURIUM, Strain/Indicator: TA1538, Metabolic Activation: RAT, LIVER, S-9, AROCLOR 1254 OR PHENOBARBITOL, Method: STANDARD PLATE) “inactive; negative”; (Test System: E.COLI, Strain/Indicator: WP2UVRA/PKM101, Metabolic Activation: NONE, Method: PREINCUBATION) “inactive; negative”. For the setting “Test System: E.COLI, Strain/Indicator: WP2UVRA/PKM101, Metabolic Activation: RAT LIVER S-9, PHENOBARBITAL AND 5,6-BENZOFLAVONE, Method: PREINCUBATION”, the mutagenic call was “inactive; negative”.

For `Cc1c([N+](=O)[O-])cc(C)c2c1c1ccccc1n2C`, the mutagenic call was “active; positive” under setting [1], “active; positive” under setting [2], “active; positive” under setting [3] and “active; positive” under setting [4].

`Cn1c2ccccc2c2ccccc21`: the mutagenic call was “inactive; negative” under setting [1]; “inactive; negative” under setting [2]; “inactive; negative” under setting [3]; “active; positive” under setting [4]; “inactive; negative” (Test System: UDS PRIMARY RAT HEPATOCYTES, Strain/Indicator: THY-INCORP, Metabolic Activation: NONE, Method: AUTORADIOGRAPHY).
